Assay results from US20180303809A1, “TREATMENT OF BURN PAIN BY TRPV1 MODULATORS” (Purdue Pharma L.P., priority 2013, published 2018).

What was measured:
Assay type in all cases: in vivo, rat
[1] = test system: male Sprague-Dawley rats; assay: Paw pressure assay, mechanical hyperalgesia (PWT) in thermal burn pain model; settings: for % Decrease from Baseline (mean ± S.E.M.) of Paw Withdrawal Threshold / Paw Withdrawal Threshold (g) (mean ± S.E.M.): rat burn injury 55° C. 24 s
Method: (§1) Test Animals: Each experiment used male Sprague-Dawley rats weighing between 190-260 g at the time of thermal burn injury. The rats were housed two per cage, and were allowed to acclimate to their environment for at least six days before testing began. The rats had free access to food and water at all times, except during testing and prior to oral (PO) administration of a test compound, when food was removed about 16 hours before dosing. The rats were divided into treatment groups, and one of the following compounds was administered to each group at the dose and by the route of administration indicated in Tables 5.2A to 5.2C, 5.3A and 5.3B, and 5.4A and 5.4B: ketorolac (Sigma-Aldrich, St. Louis, Mo.), AMG 517 (selective TRPV1 antagonist described in Em. Doherty et al., “Novel vanilloid receptor-1 antagonists:2. Structure-activity relationships of 4-oxopyrimidines leading to the selection of a clinical candidate,” J Med Chem 50:3515-3527 (2007).) (Purdue Pharma L. P., Cranbury, N.J.), indomethacin (Alexis Biochemicals, Farmingdale, N.Y.), gabapentin (Bosche Scientific, New Brunswick, N.J.), or (S)-3-chloro-5-(1,2-dihydroxyethyl)-N-(5-(trifluoromethyl)pyridin-2-yl)-5′,6′-dihydro-[2,4′-bipyridine]-1′(2′H)-carboxamide (Compound 1). The control groups were administered the vehicle for the compound of formula (I). The volume of administration for PO treatment was 5 ml/kg, and was the same for all treatment groups. Volume of administration for intraperitoneal (i.p.) drug administration was 2 ml/kg.
(§2) To assess the actions of a compound of formula (I) for the treatment or prevention of burn pain, a model of thermal burn pain was used. A thermal burn injury was induced under isofluorane/O2 inhalation anesthesia. To assess mechanical hyperalgesia and weight bearing, a thermal injury was produced by immersing the left hind paw into water maintained at 55° C. for 24 seconds. The left hind paw of non-injured control animals was immersed in 22° C. water for 24 seconds. To assess thermal hyperalgesia, a thermal injury was produced by immersing the left hindpaw into water maintained at 50° C. for 48 seconds; the left hind-paw of non-injured control animals was immersed in 22° C. water for 48 seconds. The animals were assessed for response to noxious mechanical stimuli by determining PWT for mechanical hyperalgesia, weight bearing difference between the injured or non-injured side, or response to noxious thermal stimuli by determining PWL for thermal hyperalgesia, all as described below, prior to drug administration (baseline), then again at 1, 3 and 5 hours after induction of burn injury.
The paw pressure assay was used to assess mechanical hyperalgesia. For this assay, hind paw withdrawal thresholds (PWT) to a noxious mechanical stimulus were determined using an analgesimeter (Model 7200, commercially available from Ugo Basile of Italy) as described in C. Stein, “Unilateral Inflammation of the Hindpaw in Rats as a Model of Prolonged Noxious Stimulation: Alterations in Behavior and Nociceptive Thresholds,” Pharmacol. Biochem. and Behavior 31:451-455 (1988). The rat's paw was placed on a small platform, and weight was applied in a graded manner up to a maximum of 250 grams. The endpoint was taken as the weight at which the paw was completely withdrawn. PWT was determined once for each rat at each time point, wherein the affected (ipsilateral; same side as the injury) rear paw was tested. […] All drug treatment groups were compared to the vehicle control group (i.e. injured, administered only the vehicle).

[2] = test system: male Sprague-Dawley rats; assay: Plantar test, thermal hyperalgesia (PWL) in thermal burn pain model; settings: for % Change from Baseline (mean ± S.E.M.) of Paw Withdrawal Latency / Paw Withdrawal Latency (sec) (mean ± S.E.M.): rat burn injury 50° C. 48 s
Method: as §1, §2
The plantar test was used to assess thermal hyperalgesia. For this test, hind paw withdrawal latencies (PWL) to a noxious thermal stimulus were determined using a plantar test apparatus (commercially available from Ugo Basile of Italy) following the technique described by K. Hargreaves et al., “A New and Sensitive Method for Measuring Thermal Nociception in Cutaneous Hyperalgesia,” Pain 32(1):77-88 (1988). The maximum exposure time was set at 32 seconds to avoid tissue damage and any directed paw withdrawal from the heat source is taken as the end point. Three latencies were determined at each time point and averaged.

[3] = test system: male Sprague-Dawley rats; assay: Hind limb weight bearing (incapacitance meter, % WL) in thermal burn pain model; settings: for % WL (mean ± S.E.M.), percentage of weight borne on the burn-injured left hind paw: rat burn injury 55° C. 24 s
Method: as §1, §2
A commercially available incapacitance meter was used to determine the weight distribution on the two hind paws of the animal (Linton Incapacitance Tester (Linton Instrumentation, Norfolk, UK)). The weight bearing difference (WBD) between the injured and non-injured hindpaw was measured. The animal was placed in the testing chamber that allows the animal to stand normally, distributing its body weight on the hind limbs for the test. Each hind paw was positioned on a separate pressure sensitive pad, which independently measures the pressure applied by each limb. The device continuously collects data after either a force threshold has been exceeded, or the investigator depresses the start pad. Rats were allowed to acclimate when placed on the apparatus, and when they were stationary, the force exerted was then continuously monitored for 3 s. The endpoint was the amount of pressure applied to each limb over time. Three readings were taken for each rat at each time point, and the average used for data analysis. WBD was expressed as “% WL”, i.e. the percentage of weight borne on the burn-injured left hind paw, using the following formula: […]
where WLP is the weight on the left hind paw and WRP is the weight on the right (untreated) hind paw. The 50% value of % WL corresponds to an equal weight distribution across both hind paws. […]

[4] = 3 mg/kg PO, 1 h after administration
[5] = 3 mg/kg PO, 3 h after administration
[6] = 3 mg/kg PO, 5 h after administration
[7] = 3 mg/kg PO, baseline (prior to drug administration)
[8] = 10 mg/kg PO, 1 h after administration
[9] = 10 mg/kg PO, 3 h after administration
[10] = 10 mg/kg PO, 5 h after administration
[11] = 10 mg/kg PO, baseline (prior to drug administration)
[12] = 30 mg/kg PO, 1 h after administration
[13] = 30 mg/kg PO, 3 h after administration
[14] = 30 mg/kg PO, 5 h after administration
[15] = 30 mg/kg PO, baseline (prior to drug administration)

SMILES: O=C(Nc1ccc(C(F)(F)F)cn1)N1CC=C(c2ncc([C@H](O)CO)cc2Cl)CC1 [Compound 1, (S)-3-chloro-5-(1,2-dihydroxyethyl)-N-(5-(trifluoromethyl)pyridin-2-yl)-5′,6′-dihydro-[2,4′-bipyridine]-1′(2′H)-carboxamide]
- % Decrease from Baseline (mean ± S.E.M.) of Paw Withdrawal Threshold [1, 4]: 59 ± 1.8%
- Paw Withdrawal Threshold (g) (mean ± S.E.M.) [1, 4]: 97 ± 4.5 g
- % Decrease from Baseline (mean ± S.E.M.) of Paw Withdrawal Threshold [1, 5]: 63.2 ± 2.1^ %
- Paw Withdrawal Threshold (g) (mean ± S.E.M.) [1, 5]: 88 ± 5.6 g
- % Decrease from Baseline (mean ± S.E.M.) of Paw Withdrawal Threshold [1, 6]: 63 ± 1.4%
- Paw Withdrawal Threshold (g) (mean ± S.E.M.) [1, 6]: 90 ± 4.0 g
- Paw Withdrawal Threshold (g) (mean ± S.E.M.) [1, 7]: 240 ± 8.4 g
- % Decrease from Baseline (mean ± S.E.M.) of Paw Withdrawal Threshold [1, 8]: 55 ± 3.2%
- Paw Withdrawal Threshold (g) (mean ± S.E.M.) [1, 8]: 108 ± 73^ g
- % Decrease from Baseline (mean ± S.E.M.) of Paw Withdrawal Threshold [1, 9]: 60 ± 3.2%
- Paw Withdrawal Threshold (g) (mean ± S.E.M.) [1, 9]: 97 ± 8.5 g
- % Decrease from Baseline (mean ± S.E.M.) of Paw Withdrawal Threshold [1, 10]: 66 ± 2.4%
- Paw Withdrawal Threshold (g) (mean ± S.E.M.) [1, 10]: 83 ± 5.4 g
- Paw Withdrawal Threshold (g) (mean ± S.E.M.) [1, 11]: 243 ± 6.5 g
- % Decrease from Baseline (mean ± S.E.M.) of Paw Withdrawal Threshold [1, 12]: 37 ± 2.5 %
- Paw Withdrawal Threshold (g) (mean ± S.E.M.) [1, 12]: 153 ± 4.4 g
- % Decrease from Baseline (mean ± S.E.M.) of Paw Withdrawal Threshold [1, 13]: 42 ± 4.5 %
- Paw Withdrawal Threshold (g) (mean ± S.E.M.) [1, 13]: 141 ± 9.0 g
- % Decrease from Baseline (mean ± S.E.M.) of Paw Withdrawal Threshold [1, 14]: 61 ± 2.0^ %
- Paw Withdrawal Threshold (g) (mean ± S.E.M.) [1, 14]: 95 ± 4.5 g
- Paw Withdrawal Threshold (g) (mean ± S.E.M.) [1, 15]: 244 ± 6.0^ g
- Effect on mechanical hyperalgesia associated with the burn injury ([1]; rat, 30 mg/kg): significantly reduced mechanical hyperalgesia
- Effect on thermal hyperalgesia ([2]; rat burn injury): did not significantly affect thermal hyperalgesia
- % Change from Baseline (mean ± S.E.M.) of Paw Withdrawal Latency [2, 4]: −45.8 ± 14.53%
- Paw Withdrawal Latency (sec) (mean ± S.E.M.) [2, 4]: 8.1 ± 0.77 s
- % Change from Baseline (mean ± S.E.M.) of Paw Withdrawal Latency [2, 5]: −34.4 ± 7.57%
- Paw Withdrawal Latency (sec) (mean ± S.E.M.) [2, 5]: 9.2 ± 0.99 s
- % Change from Baseline (mean ± S.E.M.) of Paw Withdrawal Latency [2, 6]: −35.7 ± 15.81%
- Paw Withdrawal Latency (sec) (mean ± S.E.M.) [2, 6]: 9.9 ± 0.70 s
- Paw Withdrawal Latency (sec) (mean ± S.E.M.) [2, 7]: 14.5 ± 1.22 s
- % Change from Baseline (mean ± S.E.M.) of Paw Withdrawal Latency [2, 8]: −36.0 ± 11.15%
- Paw Withdrawal Latency (sec) (mean ± S.E.M.) [2, 8]: 8.9 ± 1.08 s
- % Change from Baseline (mean ± S.E.M.) of Paw Withdrawal Latency [2, 9]: −19.7 ± 10.24%
- Paw Withdrawal Latency (sec) (mean ± S.E.M.) [2, 9]: 12.0 ± 0.66 s
- % Change from Baseline (mean ± S.E.M.) of Paw Withdrawal Latency [2, 10]: −22.5 ± 9.23%
- Paw Withdrawal Latency (sec) (mean ± S.E.M.) [2, 10]: 11.3 ± 0.98 s
- Paw Withdrawal Latency (sec) (mean ± S.E.M.) [2, 11]: 14.4 ± 1.17 s
- % Change from Baseline (mean ± S.E.M.) of Paw Withdrawal Latency [2, 12]: −34.3 ± 6.08%
- Paw Withdrawal Latency (sec) (mean ± S.E.M.) [2, 12]: 7.8 ± 0.73 s
- % Change from Baseline (mean ± S.E.M.) of Paw Withdrawal Latency [2, 13]: −15.7 ± 10.29%
- Paw Withdrawal Latency (sec) (mean ± S.E.M.) [2, 13]: 11.5 ± 1.04 s
- % Change from Baseline (mean ± S.E.M.) of Paw Withdrawal Latency [2, 14]: −16.6 ± 8.94%
- Paw Withdrawal Latency (sec) (mean ± S.E.M.) [2, 14]: 11.2 ± 0.81 s
- Paw Withdrawal Latency (sec) (mean ± S.E.M.) [2, 15]: 13.7 ± 0.92 s
- Effect on weight bearing ([3]; rat burn injury): did not significantly affect weight bearing
- % WL (mean ± S.E.M.), percentage of weight borne on the burn-injured left hind paw [3, 4]: 24.4 ± 4.44%
- % WL (mean ± S.E.M.), percentage of weight borne on the burn-injured left hind paw [3, 5]: 42.0 ± 4.51%
- % WL (mean ± S.E.M.), percentage of weight borne on the burn-injured left hind paw [3, 6]: 49.5 ± 3.60%
- % WL (mean ± S.E.M.), percentage of weight borne on the burn-injured left hind paw [3, 7]: 50.6 ± 0.62%
- % WL (mean ± S.E.M.), percentage of weight borne on the burn-injured left hind paw [3, 8]: 37.6 ± 2.54%
- % WL (mean ± S.E.M.), percentage of weight borne on the burn-injured left hind paw [3, 9]: 47.3 ± 1.92%
- % WL (mean ± S.E.M.), percentage of weight borne on the burn-injured left hind paw [3, 10]: 49.0 ± 2.15%
- % WL (mean ± S.E.M.), percentage of weight borne on the burn-injured left hind paw [3, 11]: 50.6 ± 0.71%
- % WL (mean ± S.E.M.), percentage of weight borne on the burn-injured left hind paw [3, 12]: 31.4 ± 3.92%
- % WL (mean ± S.E.M.), percentage of weight borne on the burn-injured left hind paw [3, 13]: 50.3 ± 2.07%
- % WL (mean ± S.E.M.), percentage of weight borne on the burn-injured left hind paw [3, 14]: 55.6 ± 3.03%
- % WL (mean ± S.E.M.), percentage of weight borne on the burn-injured left hind paw [3, 15]: 50.3 ± 0.53%
